Measured values taken from patent US20260250290A1 (BRISTOL-MYERS SQUIBB COMPANY, priority 2023, published 2026).

These molecules were tested against T1, SGK1 (Homo sapiens, UniProt O00141) (assay: SGK1 inhibition Assay B (Echo mass spectrometry of phosphorylated peptide product)). Details: 60 min at room temperature.
T1 sequence (O00141 1-431): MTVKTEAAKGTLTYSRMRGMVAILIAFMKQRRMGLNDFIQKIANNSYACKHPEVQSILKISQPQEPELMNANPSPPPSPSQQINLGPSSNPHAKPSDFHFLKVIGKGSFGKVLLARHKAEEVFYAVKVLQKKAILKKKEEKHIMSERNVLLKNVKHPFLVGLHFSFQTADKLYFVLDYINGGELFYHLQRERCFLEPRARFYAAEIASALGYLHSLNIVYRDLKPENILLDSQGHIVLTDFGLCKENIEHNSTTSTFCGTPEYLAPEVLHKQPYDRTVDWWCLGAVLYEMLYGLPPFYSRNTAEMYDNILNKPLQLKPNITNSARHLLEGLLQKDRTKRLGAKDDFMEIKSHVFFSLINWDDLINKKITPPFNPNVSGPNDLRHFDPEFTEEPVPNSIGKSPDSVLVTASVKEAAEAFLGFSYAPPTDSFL
Format: biochemical

Q: `CCC(C)(C)N[C@H]1CC[C@@H](Oc2nc(C)sc2C(=O)N[C@@H]2CCCN(c3cc(-c4ccnc(OC)n4)n4ncnc(N)c34)C2)CC1` [Example 1030, (R)—N-(1-(4-amino-7-(2-methoxypyrimidin-4-yl)pyrrolo[2,1-f][1,2,4]triazin-5-yl)piperidin-3-yl)-2-methyl-4-((4-(tert-pentylamino)cyclohexyl)oxy)thiazole-5-carboxamide] was tested. Which IC50 did it give?
A: The IC50 was 0.9 nM.

Q: For `[2H]C([2H])([2H])N(C1CCC(Oc2nc(C)sc2C(=O)N[C@@H]2CCCN(c3cc(-c4ccnc(OC)n4)n4ncnc(N)c34)C2)CC1)C([2H])([2H])[2H]` (stereo partly drawn) [Example 1031, (R)—N-(1-(4-amino-7-(2-methoxypyrimidin-4-yl)pyrrolo[2,1-f][1,2,4]triazin-5-yl)piperidin-3-yl)-4-((4-(bis(methyl-d3)amino)cyclohexyl)oxy)-2-methylthiazole-5-carboxamide], which IC50 is on record?
A: The IC50 was 1.1 nM.

Q: How did the IC50 turn out when `[2H]C([2H])([2H])N(C1CCC(Oc2nc(C)sc2C(=O)N[C@@H]2CCCN(c3cc(-c4ccnc(OC)n4)n4ncnc(N)c34)C2)CC1)C([2H])([2H])[2H]` (stereo partly drawn) [Example 1032, (R)—N-(1-(4-amino-7-(2-methoxypyrimidin-4-yl)pyrrolo[2,1-f][1,2,4]triazin-5-yl)piperidin-3-yl)-4-((4-(bis(methyl-d3)amino)cyclohexyl)oxy)-2-methylthiazole-5-carboxamide] was run?
A: Its IC50 is 1.2 nM.

Q: `[2H]C([2H])([2H])Oc1nccc(-c2cc(N3CCC[C@@H](NC(=O)c4sc(C)nc4O[C@H]4CC[C@@H](N(C)C)CC4)C3)c3c(N)ncnn23)n1` [Example 1033, N—((R)-1-(4-amino-7-(2-(methoxy-d3)pyrimidin-4-yl)pyrrolo[2,1-f][1,2,4]triazin-5-yl)piperidin-3-yl)-4-(((1S,4S)-4-(dimethylamino)cyclohexyl)oxy)-2-methylthiazole-5-carboxamide] was tested. Which IC50 did it give?
A: The IC50 was 1 nM.

Q: How did the IC50 turn out when `Cc1nccc(-c2cc(N3CCC[C@@H](NC(=O)c4sc(C)nc4O[C@H]4CC[C@@H](N(C)C)CC4)C3)c3c(N)ncnn23)n1` [Example 1035, N—((R)-1-(4-amino-7-(2-methylpyrimidin-4-yl)pyrrolo[2,1-f][1,2,4]triazin-5-yl)piperidin-3-yl)-4-(((1S,4S)-4-(dimethylamino)cyclohexyl)oxy)-2-methylthiazole-5-carboxamide] was run?
A: The IC50 was 0.8 nM.

Q: With `Cc1nccc(-c2cc(N3CCC[C@@H](NC(=O)c4sc(C)nc4O[C@H]4CC[C@@H](NC(C)C)CC4)C3)c3c(N)ncnn23)n1` [Example 1036, N—((R)-1-(4-amino-7-(2-methylpyrimidin-4-yl)pyrrolo[2,1-f][1,2,4]triazin-5-yl)piperidin-3-yl)-4-(((1S,4S)-4 (isopropylamino)cyclohexyl)oxy)-2-methylthiazole-5-carboxamide] as the molecule, how does the IC50 read?
A: The IC50 was 0.1 nM.

Q: How did the IC50 turn out when `Cc1nccc(-c2cc(N3CCC[C@@H](NC(=O)c4sc(C)nc4OC4CCC(N5CCC5)CC4)C3)c3c(N)ncnn23)n1` (stereo partly drawn) [Example 1037, N—((R)-1-(4-amino-7-(2-methylpyrimidin-4-yl)pyrrolo[2,1-f][1,2,4]triazin-5-yl)piperidin-3-yl)-4-(((1S,4S)-4-(azetidin-1-yl)cyclohexyl)oxy)-2-methylthiazole-5-carboxamide] was run?
A: The IC50 was 1.2 nM.

Q: How did the IC50 turn out when `COc1cc(-c2cc(N3CCC[C@@H](NC(=O)c4sc(C)nc4OC4CCC(N5CCC5)CC4)C3)c3c(N)ncnn23)ccn1` (some centres unmarked) [Example 1038] was run?
A: Its IC50 is 0.9 nM.

Q: `Cc1nc(OC2CCC(N3CC(O)C3)CC2)c(C(=O)N[C@@H]2CCCN(c3cc(-c4ccc(C(N)=O)c(F)c4)n4ncnc(N)c34)C2)s1` (stereo partly drawn) [Example 1039, (R)—N-(1-(4-amino-7-(4-carbamoyl-3-fluorophenyl)pyrrolo[2,1-f][1,2,4]triazin-5-yl)piperidin-3-yl)-4-((4-(3-hydroxyazetidin-1-yl)cyclohexyl)oxy)-2-methylthiazole-5-carboxamide] was tested. Which IC50 did it give?
A: The IC50 was 0.9 nM.

Q: How did the IC50 turn out when `COC[C@@H](C)NC1CCC(Oc2nc(C)sc2C(=O)N[C@@H]2CCCN(c3cc(-c4ccc(C(N)=O)c(F)n4)n4ncnc(N)c34)C2)CC1` (some centres unmarked) [Example 1040] was run?
A: The IC50 was 1.7 nM.

Q: How did the IC50 turn out when `Cc1nc(OC2CCC(N3CCC3)CC2)c(C(=O)N[C@@H]2CCCN(c3cc(-c4ccc(C(N)=O)c(F)n4)n4ncnc(N)c34)C2)s1` (stereo partly drawn) [Example 1041, (R)—N-(1-(4-amino-7-(5-carbamoyl-6-fluoropyridin-2-yl)pyrrolo[2,1-f][1,2,4]triazin-5-yl)piperidin-3-yl)-4-((4-(azetidin-1-yl)cyclohexyl)oxy)-2-methylthiazole-5-carboxamide] was run?
A: Its IC50 is 1.7 nM.

Q: `COc1nc(-c2cc(N3CCC[C@@H](NC(=O)c4sc(C)nc4OC4CCC(N5CCC[C@@H]5C)CC4)C3)c3c(N)ncnn23)ccc1C(N)=O` (stereo partly drawn) [Example 1043, N—((R)-1-(4-amino-7-(5-carbamoyl-6-methoxypyridin-2-yl)pyrrolo[2,1-f] [1,2,4]triazin-5-yl)piperidin-3-yl)-2-methyl-4-((4-((S)-2-methylpyrrolidin-1-yl)cyclohexyl)oxy) thiazole-5-carboxamide] was tested. Which IC50 did it give?
A: The IC50 was 2.1 nM.

Q: For `COc1nc(-c2cc(N3CCC[C@@H](NC(=O)c4sc(C)nc4OC4CCC(N5CCC[C@H]5C)CC4)C3)c3c(N)ncnn23)ccc1C(N)=O` (stereo partly drawn) [Example 1044, N—((R)-1-(4-amino-7-(5-carbamoyl-6-methoxypyridin-2-yl)pyrrolo[2,1-f][1,2,4]triazin-5-yl)piperidin-3-yl)-2-methyl-4-((4-((R)-2-methylpyrrolidin-1-yl)cyclohexyl)oxy)thiazole-5-carboxamide], which IC50 is on record?
A: Its IC50 is 2.8 nM.

Q: With `COc1nc(-c2cc(N3CCC[C@@H](NC(=O)c4sc(C)nc4OC4CCC(N5CCC5)CC4)C3)c3c(N)ncnn23)ccc1C(N)=O` (stereo partly drawn) [Example 1045, (R)—N-(1-(4-amino-7-(5-carbamoyl-6-methoxypyridin-2-yl)pyrrolo[2,1-f][1,2,4]triazin-5-yl)piperidin-3-yl)-4-((4-(azetidin-1-yl)cyclohexyl)oxy)-2-methylthiazole-5-carboxamide] as the molecule, how does the IC50 read?
A: The IC50 was 0.5 nM.

Q: For `Cc1cc(-c2cc(N3CCC[C@@H](NC(=O)c4sc(C)nc4O[C@H]4CC[C@@H](N(C)C)CC4)C3)c3c(N)ncnn23)cnn1` [Example 1046], which IC50 is on record?
A: Its IC50 is 16 nM.

Q: Which IC50 does the source give for `Cc1cc(-c2cc(N3CCC[C@@H](NC(=O)c4sc(C)nc4OC4CCC(N5CCC5)CC4)C3)c3c(N)ncnn23)cnn1` (stereo partly drawn) [Example 1047, N—((R)-1-(4-amino-7-(6-methylpyridazin-4-yl)pyrrolo[2,1-f][1,2,4]triazin-5-yl)piperidin-3-yl)-4-((4-(azetidin-1-yl)cyclohexyl)oxy)-2-methylthiazole-5-carboxamide] here?
A: Its IC50 is 9.9 nM.

Q: `Cc1nc(OC2CCC(N3CC(O)C3)CC2)c(C(=O)N[C@@H]2CCCN(c3cc(C#N)n4ncnc(N)c34)C2)s1` (stereo partly drawn) [Example 1048, (R)—N-(1-(4-amino-7-cyanopyrrolo[2,1-f][1,2,4]triazin-5-yl)piperidin-3-yl)-4-((4-(3-hydroxyazetidin-1-yl)cyclohexyl)oxy)-2-methylthiazole-5-carboxamide] was tested. Which IC50 did it give?
A: Its IC50 is 3.1 nM.

Q: For `Cc1nc(OC2CCC(N3CCC3)CC2)c(C(=O)N[C@@H]2CCCN(c3cc(C#N)n4ncnc(N)c34)C2)s1` (stereo partly drawn) [Example 1049, (R)—N-(1-(4-amino-7-cyanopyrrolo[2,1-f][1,2,4]triazin-5-yl)piperidin-3-yl)-4-((4-(azetidin-1-yl)cyclohexyl)oxy)-2-methylthiazole-5-carboxamide], which IC50 is on record?
A: Its IC50 is 1.9 nM.

Q: `Cc1nc(OC2CCC(N3CCC3)CC2)c(C(=O)N[C@@H]2CCCN(c3cc(-c4csc(C(N)=O)n4)n4ncnc(N)c34)C2)s1` (stereo partly drawn) [Example 1050, (R)-4-(4-amino-5-(3-(4-((4-(azetidin-1-yl)cyclohexyl)oxy)-2-methylthiazole-5-carboxamido)piperidin-1-yl)pyrrolo[2,1-f][1,2,4]triazin-7-yl)thiazole-2-carboxamide] was tested. Which IC50 did it give?
A: The IC50 was 0.6 nM.

Q: `Cc1nc(OC2CCC(N3CCC3)CC2)c(C(=O)N[C@@H]2CCCN(c3cc(-c4nc(C(N)=O)cs4)n4ncnc(N)c34)C2)s1` (stereo partly drawn) [Example 1052, (R)-2-(4-amino-5-(3-(4-((4-(azetidin-1-yl)cyclohexyl)oxy)-2-methylthiazole-5-carboxamido)piperidin-1-yl)pyrrolo[2,1-f][1,2,4]triazin-7-yl)thiazole-4-carboxamide] was tested. Which IC50 did it give?
A: The IC50 was 0.9 nM.

Q: `CC[C@H](CO)NC1CCC(Oc2nc(C)sc2C(=O)N[C@@H]2CCCN(c3cc(-c4csc(C(=O)NC)n4)n4ncnc(N)c34)C2)CC1` (stereo partly drawn) [Example 1053, 4-(4-amino-5-((R)-3-(4-((4-(((R)-1-hydroxybutan-2-yl)amino)cyclohexyl)oxy)-2-methylthiazole-5-carboxamido)piperidin-1-yl)pyrrolo[2,1-f][1,2,4]triazin-7-yl)-N-methylthiazole-2-carboxamide] was tested. Which IC50 did it give?
A: Its IC50 is 0.8 nM.

Q: For `CCC(C)(C)NC1CCC(Oc2nc(C)sc2C(=O)N[C@@H]2CCCN(c3cc(-c4ccc(C(N)=O)c(F)n4)n4ncnc(N)c34)C2)CC1` (stereo partly drawn) [Example 1055, (R)—N-(1-(4-amino-7-(5-carbamoyl-6-fluoropyridin-2-yl)pyrrolo[2,1-f][1,2,4]triazin-5-yl)piperidin-3-yl)-2-methyl-4-((4-(tert-pentylamino)cyclohexyl)oxy)thiazole-5-carboxamide], which IC50 is on record?
A: Its IC50 is 0.5 nM.

Q: With `Cc1nc(OC2CCC(NC(C)(C)C)CC2)c(C(=O)N[C@@H]2CCCN(c3cc(-c4ccc(C(N)=O)c(F)n4)n4ncnc(N)c34)C2)s1` (stereo partly drawn) [Example 1056, (R)—N-(1-(4-amino-7-(5-carbamoyl-6-fluoropyridin-2-yl)pyrrolo[2,1-f][1,2,4]triazin-5-yl)piperidin-3-yl)-4-((4-(tert-butylamino)cyclohexyl)oxy)-2-methylthiazole-5-carboxamide] as the molecule, how does the IC50 read?
A: The IC50 was 0.7 nM.
